Results: patent US11629171B2, “Beta-hairpin peptidomimetics” (POLYPHOR AG, priority 2017, dated 2023)
Values after ≈ are worked out from the molar mass of the structure shown. Where a SMILES comes first, the peptide text is derived from it. Bridges are numbered along the chain shown (N, C = ends). Roman numbers before positions name the chains, in order. [ ]: non-standard residue; d: D form. Tle = CC(C)(C)[C@H](N)C(=O)O; dDab = NCC[C@@H](N)C(=O)O; Dab = NCC[C@H](N)C(=O)O; Abu = CC[C@H](N)C(=O)O; Dap = NC[C@H](N)C(=O)O; Mpa = O=C(O)CCS

Experiments:
Assay type in all cases: cell-based
[1] = test system: Acinetobacter baumannii DSM 30008; conditions: DSM 30008
Method in brief: (§1)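 CLSI broth microdilution: inoculum ~10^6 CFU/mL in cation-adjusted Mueller-Hinton II broth, with peptide in serial two-fold dilutions plus Polysorbate 80 (0.002% final). MIC (μg/mL) is the lowest concentration without visible growth after 18-20 hours at 35° C.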

[2] = test system: Escherichia coli ATCC 25922; conditions: ATCC 25922
Method in brief: as §1

[3] = test system: Pseudomonas aeruginosa ATCC 27853; conditions: ATCC 27853
Method in brief: as §1

[4] = test system: Klebsiella pneumoniae SSI #3010; conditions: SSI #3010
Method in brief: as §1

Escherichia coli 926415 = conditions: 926415
Method in brief: as §1

[5] = test system: Enterobacter cloacae 848840; conditions: 848840
Method in brief: as §1

[6] = test system: Klebsiella pneumoniae 968733; conditions: 968733
Method in brief: as §1

[7] = test system: Acinetobacter baumannii 872842; conditions: 872842
Method in brief: as §1

[8] = test system: human red blood cells (hRBC); assay: Hemolysis; conditions: red cells of human, 1 h, 200
Method in brief: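 Washed fresh human RBC (20% v/v) incubated with peptide at 200 μg/mL for 1 h at 37° C with shaking. Supernatant OD540 measured after dilution, blank corrected; percent hemolysis = OD540 peptide / OD540 of 2% Triton X-100 lysis × 100, PBS with 10% water as 0%.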

MIC [1] | MIC [2] | MIC [3] | MIC [4] | MIC (Escherichia coli 926415) | MIC [5] | MIC [6] | MIC [7] | Compound | Hemolysis at 200 μg/mL [8]
0.5 µg/mL (≈ 0.192 µM) | 0.125 µg/mL (≈ 0.0479 µM) | 0.25 µg/mL (≈ 0.0958 µM) | 0.125 µg/mL (≈ 0.0479 µM) | 0.25 µg/mL (≈ 0.0958 µM) | 4 µg/mL (≈ 1.53 µM) | 4 µg/mL (≈ 1.53 µM) | 1 µg/mL (≈ 0.383 µM) | CC(=O)N[C@@H](CCN)C(=O)N[C@H](C(=O)N[C@H](C(=O)N[C@@H](Cc1ccc(O)cc1)C(=O)N[C@@H](CN)C(=O)N[C@@H](CCC(=O)N[C@@H](CCN)C(=O)N[C@H](C(=O)N[C@@H](CN)C(=O)N[C@H]1CCNC(=O)[C@H]([C@@H](C)O)NC(=O)[C@H](CCN)NC(=O)[C@H](CCN)NC(=O)[C@H](CC(C)C)NC(=O)[C@@H](CC(C)C)NC(=O)[C@H](CCN)NC1=O)[C@@H](C)O)C(=O)N[C@H](CCN)C(=O)N[C@@H](CCN)C(=O)N[C@@H](Cc1c[nH]c2ccccc12)C(=O)N[C@@H](CO)C(=O)N[C@H](C(=O)N[C@@H](C)C(=O)N[C@@H](CO)C(=O)N[C@@H](CCC(=O)O)C(N)=O)C(C)(C)C)[C@@H](C)O)C(C)C [Ex. 248] (I: Ac-[Dab]VTY[Dap]E[dDab][Dab]WS[Tle]ASE-NH2 / II: [Dab]T[Dap][Dab][Dab][dL]L[Dab][Dab]T; amide I:6-II:N; lactam II:4-II:C) | <1%
0.03125 µg/mL (≈ 0.0119 µM) | 0.03125 µg/mL (≈ 0.0119 µM) | 0.125 µg/mL (≈ 0.0476 µM) | 0.0625 µg/mL (≈ 0.0238 µM) | 0.125 µg/mL (≈ 0.0476 µM) | 0.125 µg/mL (≈ 0.0476 µM) | 0.25 µg/mL (≈ 0.0953 µM) | 0.03125 µg/mL (≈ 0.0119 µM) | CC(=O)N[C@@H](CCN)C(=O)N[C@H](C(=O)N[C@H](C(=O)N[C@@H](Cc1ccc(O)cc1)C(=O)N[C@@H](CN)C(=O)N[C@@H](CCC(=O)N[C@@H](CCN)C(=O)N[C@H](C(=O)N[C@@H](CN)C(=O)N[C@H]1CCNC(=O)[C@H]([C@@H](C)O)NC(=O)[C@H](CCN)NC(=O)[C@H](CCN)NC(=O)[C@H](CC(C)C)NC(=O)[C@@H](CC(C)C)NC(=O)[C@H](CCN)NC1=O)[C@@H](C)O)C(=O)N[C@H](CCN)C(=O)N[C@@H](CO)C(=O)N[C@@H](Cc1c[nH]c2ccccc12)C(=O)N[C@@H](CO)C(=O)N[C@H](C(=O)N[C@@H](CO)C(=O)N[C@H](C(=O)N[C@@H](CCC(=O)O)C(N)=O)C(C)C)C(C)(C)C)[C@@H](C)O)C(C)C [Ex. 249] (I: Ac-[Dab]VTY[Dap]E[dDab]SWS[Tle]SVE-NH2 / II: [Dab]T[Dap][Dab][Dab][dL]L[Dab][Dab]T; amide I:6-II:N; lactam II:4-II:C) | 2%
0.03125 µg/mL (≈ 0.0121 µM) | 0.03125 µg/mL (≈ 0.0121 µM) | 0.125 µg/mL (≈ 0.0484 µM) | 0.0625 µg/mL (≈ 0.0242 µM) | 0.0625 µg/mL (≈ 0.0242 µM) | 0.0625 µg/mL (≈ 0.0242 µM) | 0.125 µg/mL (≈ 0.0484 µM) | 0.03125 µg/mL (≈ 0.0121 µM) | CC(C)C[C@@H]1NC(=O)[C@@H](CC(C)C)NC(=O)[C@H](CCN)NC(=O)[C@@H](NC(=O)[C@H](CN)NC(=O)[C@@H](NC(=O)[C@H](CCN)NC(=O)CC[C@@H]2NC(=O)[C@H](CO)NC(=O)[C@H](Cc3ccc(O)cc3)NC(=O)[C@H]([C@@H](C)O)NC(=O)[C@H](C(C)C)NC(=O)CCSSC[C@@H](C(N)=O)NC(=O)[C@H]([C@@H](C)O)NC(=O)[C@H](C)NC(=O)[C@H](C(C)(C)C)NC(=O)[C@H](CCC(=O)O)NC(=O)[C@H](Cc3c[nH]c4ccccc34)NC(=O)[C@H](CCN)NC(=O)[C@@H](CCN)NC2=O)[C@@H](C)O)CCNC(=O)[C@H]([C@@H](C)O)NC(=O)[C@H](CCN)NC(=O)[C@H](CCN)NC1=O [Ex. 250] (I: [Mpa]VTYSE[dDab][Dab]WE[Tle]ATC-NH2 / II: [Dab]T[Dap][Dab][Dab][dL]L[Dab][Dab]T; disulfide I:1-I:14; amide I:6-II:N; lactam II:4-II:C) | 1%
0.01562 µg/mL (≈ 0.00651 µM) | 0.03125 µg/mL (≈ 0.013 µM) | 0.0625 µg/mL (≈ 0.0261 µM) | 0.03125 µg/mL (≈ 0.013 µM) | 0.125 µg/mL (≈ 0.0521 µM) | 0.125 µg/mL (≈ 0.0521 µM) | 0.0625 µg/mL (≈ 0.0261 µM) | 0.03125 µg/mL (≈ 0.013 µM) | CC(=O)N[C@H](C(=O)N[C@H]1CSSC[C@@H](C(=O)N[C@@H](CO)C(N)=O)NC(=O)[C@H](C(C)C)NC(=O)[C@H](CO)NC(=O)[C@H](Cc2c[nH]c3ccccc23)NC(=O)[C@H](CCN)NC(=O)[C@@H](CCN)NC(=O)[C@H](CCC(=O)N[C@@H](CCN)C(=O)N[C@H](C(=O)N[C@@H](CN)C(=O)N[C@H]2CCNC(=O)[C@H]([C@@H](C)O)NC(=O)[C@H](CCN)NC(=O)[C@H](CCN)NC(=O)[C@H](CC(C)C)NC(=O)[C@@H](CC(C)C)NC(=O)[C@H](CCN)NC2=O)[C@@H](C)O)NC(=O)[C@H](CO)NC(=O)[C@H](Cc2ccc(O)cc2)NC1=O)C(C)C [Ex. 251] (I: Ac-VCYSE[dDab][Dab]WSVCS-NH2 / II: [Dab]T[Dap][Dab][Dab][dL]L[Dab][Dab]T; disulfide I:2-I:11; amide I:5-II:N; lactam II:4-II:C) | 1%
0.0625 µg/mL (≈ 0.0258 µM) | 0.0625 µg/mL (≈ 0.0258 µM) | 0.0625 µg/mL (≈ 0.0258 µM) | 0.03125 µg/mL (≈ 0.0129 µM) | 0.125 µg/mL (≈ 0.0515 µM) | 0.125 µg/mL (≈ 0.0515 µM) | 0.125 µg/mL (≈ 0.0515 µM) | 0.0625 µg/mL (≈ 0.0258 µM) | CC(=O)N[C@H](C(=O)N[C@H]1CSSC[C@@H](C(=O)N[C@@H](CO)C(N)=O)NC(=O)[C@H](C(C)(C)C)NC(=O)[C@H](CO)NC(=O)[C@H](Cc2c[nH]c3ccccc23)NC(=O)[C@H](CCN)NC(=O)[C@@H](CCN)NC(=O)[C@H](CCC(=O)N[C@@H](CCN)C(=O)N[C@H](C(=O)N[C@@H](CN)C(=O)N[C@H]2CCNC(=O)[C@H]([C@@H](C)O)NC(=O)[C@H](CCN)NC(=O)[C@H](CCN)NC(=O)[C@H](CC(C)C)NC(=O)[C@@H](CC(C)C)NC(=O)[C@H](CCN)NC2=O)[C@@H](C)O)NC(=O)[C@H]([C@@H](C)O)NC(=O)[C@H](Cc2ccc(O)cc2)NC1=O)C(C)C [Ex. 252] (I: Ac-VCYTE[dDab][Dab]WS[Tle]CS-NH2 / II: [Dab]T[Dap][Dab][Dab][dL]L[Dab][Dab]T; disulfide I:2-I:11; amide I:5-II:N; lactam II:4-II:C) | 2%
0.03125 µg/mL (≈ 0.013 µM) | 0.03125 µg/mL (≈ 0.013 µM) | 0.0625 µg/mL (≈ 0.0259 µM) | 0.0625 µg/mL (≈ 0.0259 µM) | 0.0625 µg/mL (≈ 0.0259 µM) | 0.125 µg/mL (≈ 0.0518 µM) | 0.0625 µg/mL (≈ 0.0259 µM) | 0.03125 µg/mL (≈ 0.013 µM) | CC[C@H](C)[C@@H]1NC(=O)[C@H](CO)NC(=O)[C@H](Cc2c[nH]c3ccccc23)NC(=O)[C@H](CCN)NC(=O)[C@@H](CCN)NC(=O)[C@H](CCC(=O)N[C@@H](CCN)C(=O)N[C@H](C(=O)N[C@@H](CN)C(=O)N[C@H]2CCNC(=O)[C@H]([C@@H](C)O)NC(=O)[C@H](CCN)NC(=O)[C@H](CCN)NC(=O)[C@H](CC(C)C)NC(=O)[C@@H](CC(C)C)NC(=O)[C@H](CCN)NC2=O)[C@@H](C)O)NC(=O)[C@H](CO)NC(=O)[C@H](Cc2ccc(O)cc2)NC(=O)[C@@H](NC(=O)[C@@H](NC(C)=O)C(C)C)CSSC[C@@H](C(=O)N[C@@H](CO)C(N)=O)NC1=O [Ex. 253] (I: Ac-VCYSE[dDab][Dab]WSICS-NH2 / II: [Dab]T[Dap][Dab][Dab][dL]L[Dab][Dab]T; disulfide I:2-I:11; amide I:5-II:N; lactam II:4-II:C) | 2%
0.03125 µg/mL (≈ 0.013 µM) | 0.0625 µg/mL (≈ 0.0261 µM) | 0.0625 µg/mL (≈ 0.0261 µM) | 0.03125 µg/mL (≈ 0.013 µM) | 0.0625 µg/mL (≈ 0.0261 µM) | 0.0625 µg/mL (≈ 0.0261 µM) | 0.25 µg/mL (≈ 0.104 µM) | 0.125 µg/mL (≈ 0.0521 µM) | CC[C@@H]1NC(=O)[C@@H](CC(C)C)NC(=O)[C@H](CCN)NC(=O)[C@@H](NC(=O)[C@H](CN)NC(=O)[C@@H](NC(=O)[C@H](CCN)NC(=O)CC[C@@H]2NC(=O)[C@H]([C@@H](C)O)NC(=O)[C@H](Cc3ccc(O)cc3)NC(=O)[C@@H](NC(=O)[C@@H](NC(C)=O)C(C)C)CSSC[C@@H](C(=O)N[C@@H](CO)C(N)=O)NC(=O)[C@H](C(C)(C)C)NC(=O)[C@H](CO)NC(=O)[C@H](Cc3c[nH]c4ccccc34)NC(=O)[C@H](CCN)NC(=O)[C@@H](CCN)NC2=O)[C@@H](C)O)CCNC(=O)[C@H]([C@@H](C)O)NC(=O)[C@H](CCN)NC(=O)[C@H](CCN)NC1=O [Ex. 255] (I: Ac-VCYTE[dDab][Dab]WS[Tle]CS-NH2 / II: [Dab]T[Dap][Dab][Dab][dL][Abu][Dab][Dab]T; disulfide I:2-I:11; amide I:5-II:N; lactam II:4-II:C) | 1%
